{"source": "ChEMBL document CHEMBL2074548", "about": "“Transport of digoxin by human P-glycoprotein expressed in a porcine kidney epithelial cell line (LLC-PK1)” (J Pharmacol Exp Ther, 1992)", "key": {"[1]": {"target": "T1, ATP-dependent translocase ABCB1 (Homo sapiens, UniProt P08183)", "T1 sequence (P08183 whole entry)": "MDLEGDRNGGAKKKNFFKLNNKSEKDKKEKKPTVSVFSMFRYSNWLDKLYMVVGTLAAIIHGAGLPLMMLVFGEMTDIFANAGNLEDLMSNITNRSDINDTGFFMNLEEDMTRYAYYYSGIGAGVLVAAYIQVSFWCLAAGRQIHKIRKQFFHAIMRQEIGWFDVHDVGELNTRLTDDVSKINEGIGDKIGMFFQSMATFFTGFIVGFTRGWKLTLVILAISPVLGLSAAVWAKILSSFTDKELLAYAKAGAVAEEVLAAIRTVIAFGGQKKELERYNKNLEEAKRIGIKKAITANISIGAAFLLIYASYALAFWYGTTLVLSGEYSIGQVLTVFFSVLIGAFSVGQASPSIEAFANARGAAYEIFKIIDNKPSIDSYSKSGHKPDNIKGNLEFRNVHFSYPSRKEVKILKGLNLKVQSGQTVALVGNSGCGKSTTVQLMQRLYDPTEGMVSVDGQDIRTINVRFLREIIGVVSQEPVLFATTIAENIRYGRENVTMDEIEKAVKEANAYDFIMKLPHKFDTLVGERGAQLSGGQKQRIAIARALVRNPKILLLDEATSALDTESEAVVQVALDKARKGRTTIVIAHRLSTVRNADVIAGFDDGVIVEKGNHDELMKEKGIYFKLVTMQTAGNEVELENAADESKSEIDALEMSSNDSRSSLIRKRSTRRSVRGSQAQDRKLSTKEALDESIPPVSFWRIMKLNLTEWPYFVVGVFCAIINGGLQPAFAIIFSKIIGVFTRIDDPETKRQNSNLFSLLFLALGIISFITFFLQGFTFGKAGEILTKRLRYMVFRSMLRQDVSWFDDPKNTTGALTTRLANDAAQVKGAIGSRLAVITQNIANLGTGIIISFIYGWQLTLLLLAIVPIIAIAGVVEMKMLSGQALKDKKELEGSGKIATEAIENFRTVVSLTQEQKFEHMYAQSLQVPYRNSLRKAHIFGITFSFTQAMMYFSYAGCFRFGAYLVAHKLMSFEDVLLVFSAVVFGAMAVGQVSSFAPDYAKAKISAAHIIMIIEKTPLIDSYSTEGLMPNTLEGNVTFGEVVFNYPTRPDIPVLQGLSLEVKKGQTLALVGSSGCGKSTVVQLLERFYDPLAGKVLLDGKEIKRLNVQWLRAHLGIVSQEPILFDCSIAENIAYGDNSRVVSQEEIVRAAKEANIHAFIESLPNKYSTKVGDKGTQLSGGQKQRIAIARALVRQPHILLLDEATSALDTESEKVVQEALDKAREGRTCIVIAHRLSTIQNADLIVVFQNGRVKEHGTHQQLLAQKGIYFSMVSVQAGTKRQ", "test": "TP_TRANSPORTER: transepithelial transport (basal to apical) in MDR1-expressing LLC-PK1 cells", "type": "functional, cell-based", "settings": "pig"}, "[2]": {"target": "T1, ATP-dependent translocase ABCB1", "test": "TP_TRANSPORTER: inhibition of Digoxin transepithelial transport (basal to apical)(Digoxin: 0.1uM, Vinblastine: 20 uM) in MDR1-expressing LLC-PK1 cells", "type": "functional, cell-based", "settings": "pig, llc-pk1, 20 µM"}}, "data": [{"smiles": "C[C@H]1O[C@@H](O[C@H]2[C@@H](O)C[C@H](O[C@H]3[C@@H](O)C[C@H](O[C@H]4CC[C@@]5(C)[C@H](CC[C@@H]6[C@@H]5C[C@@H](O)[C@]5(C)[C@@H](C7=CC(=O)OC7)CC[C@]65O)C4)O[C@@H]3C)O[C@@H]2C)C[C@H](O)[C@@H]1O", "note": "[DIGOXIN]", "values": [{"measurement": "Activity", "setting": "[1]", "value": "substrate [+]"}]}, {"smiles": "CC[C@]1(O)C[C@@H]2CN(CCc3c([nH]c4ccccc34)[C@@](C(=O)OC)(c3cc4c(cc3OC)N(C)[C@H]3[C@@](O)(C(=O)OC)[C@H](OC(C)=O)[C@]5(CC)C=CCN6CC[C@]43[C@@H]65)C2)C1", "note": "[VINBLASTINE]", "values": [{"measurement": "Activity", "setting": "[2]", "value": "inhibitor [+]"}]}]}
